According to ChEMBL document CHEMBL1201862, “PubChem BioAssay data set” (2004):
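Step 1: Grow cells in 96-well plates. Step 2: Expose to compound for 48 hours at 5 concentrations. Step 3: Interpolate endpoints linearly; if unreached, use highest concentration. GI50 = concentration required for 50% inhibition of growth.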 Active and inactive are the calls of the source. Rule as the data show it: active = GI50 up to about 1.1 µM and inactive = higher.

How the values were obtained:
Test in all cases: growth of human tumour cells (NCI), 48 h
UO-31 = system: UO-31
SK-MEL-2 = system: SK-MEL-2
MDA-MB-231 = system: MDA-MB-231
SK-MEL-5 = system: SK-MEL-5
TK-10 = system: TK-10
COLO 205 = system: COLO 205
MDA-MB-435 = system: MDA-MB-435
A549 = system: A549
786-0 = system: 786-0
HCC 2998 = system: HCC 2998
OVCAR-3 = system: OVCAR-3
DU-145 = system: DU-145
SF-295 = system: SF-295
HCT-15 = system: HCT-15
NCI-H23 = system: NCI-H23
NCI-H226 = system: NCI-H226
ACHN = system: ACHN
SR = system: SR

Compound	GI50 (UO-31)	GI50 (SK-MEL-2)	GI50 (MDA-MB-231)	GI50 (SK-MEL-5)	GI50 (TK-10)	GI50 (COLO 205)	GI50 (MDA-MB-435)	GI50 (A549)	GI50 (786-0)	GI50 (HCC 2998)	GI50 (OVCAR-3)	GI50 (DU-145)	GI50 (SF-295)	GI50 (HCT-15)	GI50 (NCI-H23)	GI50 (NCI-H226)	GI50 (ACHN)	GI50 (SR)
CC[C@@]12C=CC(=S)N(CCSc3ccccc3)[C@@H]1c1c(n(S(=O)(=O)c3ccc(OC)cc3)c3ccccc13)CC2	> 100 µM (inactive)	> 100 µM (inactive)	> 100 µM (inactive)	> 100 µM (inactive)	> 100 µM (inactive)	> 100 µM (inactive)	> 100 µM (inactive)	> 100 µM (inactive)	> 100 µM (inactive)	> 100 µM (inactive)	> 100 µM (inactive)	> 100 µM (inactive)	> 100 µM (inactive)	> 100 µM	> 100 µM (inactive)			
O=S(=O)(O)c1ccc(O)c(/N=N/c2c(O)ccc3ccccc23)c1	> 100 µM (inactive)	> 100 µM (inactive)	> 100 µM (inactive)	> 100 µM (inactive)	> 100 µM (inactive)	87.3 µM (inactive)	> 100 µM (inactive)	> 100 µM (inactive)	> 100 µM (inactive)		34.6 µM (inactive)	> 100 µM (inactive)	> 100 µM (inactive)	> 100 µM	> 100 µM (inactive)	> 100 µM (inactive)		
COc1ccc2c(c1)CCCN1Cc3ccccc3CC21 (stereo unspecified)	44.7 µM (inactive)		91.4 µM (inactive)	22.5 µM (inactive)	> 100 µM (inactive)	40.7 µM (inactive)	54.1 µM (inactive)	> 100 µM (inactive)	99.1 µM (inactive)	19.1 µM (inactive)	52.7 µM (inactive)	> 100 µM (inactive)	65.9 µM (inactive)	> 100 µM	> 100 µM (inactive)	31.5 µM (inactive)	> 100 µM (inactive)	
O=C1[C@@H]2C[C@@H](O)CN2C(=O)c2ccccc2N1CCCO	> 100 µM (inactive)	> 100 µM (inactive)	> 100 µM (inactive)		> 100 µM (inactive)		> 100 µM (inactive)	> 100 µM (inactive)	> 100 µM (inactive)		> 100 µM (inactive)	> 100 µM (inactive)	> 100 µM (inactive)	> 100 µM		> 100 µM (inactive)	> 100 µM (inactive)	
O=[N+]([O-])c1cccc2c(/N=N/c3ccc4ccccc4c3O)c(O)cc(S(=O)(=O)O)c12	6.03 µM (inactive)	22.6 µM (inactive)		31 µM (inactive)	49.7 µM (inactive)		23.8 µM (inactive)	32.7 µM (inactive)	17.8 µM (inactive)		3.47 µM (inactive)		20.9 µM (inactive)	14.1 µM	33.3 µM (inactive)	22.6 µM (inactive)	22.5 µM (inactive)	2.82 µM (inactive)
C=C1[C@@H](OC(C)=O)[C@H]2[C@@H](OC(C)=O)[C@@](C)(OC(C)=O)C[C@]2(OC(C)=O)C(=O)[C@@H](C)/C=C/C(C)(C)C(=O)C[C@H]1OC(C)=O	> 100 µM (inactive)	> 100 µM (inactive)	> 100 µM (inactive)	> 100 µM (inactive)	> 100 µM (inactive)	72.3 µM (inactive)	> 100 µM (inactive)	> 100 µM (inactive)	> 100 µM (inactive)	> 100 µM (inactive)	47.2 µM (inactive)	> 100 µM (inactive)	> 100 µM (inactive)	> 100 µM	> 100 µM (inactive)	> 100 µM (inactive)	> 100 µM (inactive)	
COc1cc(NCCC(=O)O)c2ncccc2c1	> 100 µM (inactive)	38.8 µM (inactive)	> 100 µM (inactive)	> 100 µM (inactive)	> 100 µM (inactive)		> 100 µM (inactive)	> 100 µM (inactive)	> 100 µM (inactive)		> 100 µM (inactive)		> 100 µM (inactive)	> 100 µM	> 100 µM (inactive)	> 100 µM (inactive)	> 100 µM (inactive)	> 100 µM (inactive)
O=C(O)CCCc1nc2c(n1-c1ccccc1)C(=O)c1ccccc1C2=O	> 100 µM (inactive)	97.9 µM (inactive)	77.3 µM (inactive)		> 100 µM (inactive)	52.5 µM (inactive)		> 100 µM (inactive)	> 100 µM (inactive)	91.8 µM (inactive)	33.6 µM (inactive)	> 100 µM (inactive)	60 µM (inactive)	74.5 µM	65.8 µM (inactive)		68.1 µM (inactive)	77.8 µM (inactive)
CCOC(=O)N/N=C(/N)c1cccc(Br)c1	56.1 µM (inactive)	> 100 µM (inactive)	> 100 µM (inactive)	> 100 µM (inactive)	> 100 µM (inactive)	> 100 µM (inactive)		> 100 µM (inactive)	> 100 µM (inactive)	> 100 µM (inactive)	> 100 µM (inactive)	> 100 µM (inactive)	> 100 µM (inactive)	> 100 µM	> 100 µM (inactive)		> 100 µM (inactive)	> 100 µM (inactive)
